Results published in paper PMC9968138, “Design, Synthesis, and Biological Evaluation of a Small-Molecule PET Agent for Imaging PD-L1 Expression” (Pharmaceuticals, 2023).
Several values for one entry are separate records, joined by “and”; a condition that tells them apart may be missing. Identical values can stand only once. Like-named read-outs stand apart in the source and are kept apart here. Blank lines part the entries; values can stand above or below the compound they belong to.

Legend:
[1] = MTT cell viability assay, PD-L1+ cells; type: cell-based; conditions: human, A375-hPD-L1 cells (PD-L1-transfected human melanoma A375), LP-F 0-100 μM
Protocol: (§1) Human melanoma cell line A375 (PD-L1^-) and human PD-L1 gene-transfected A375 cells (A375-hPD-L1, PD-L1^+) were cultured according to previous work.
(§2) Each well was seeded with 1 × 10^4 cancer cells in 96-well plates. LP-F dissolved in DMEM with gradient concentration (0, 12.5, 25, 50 and 100 μM) was added to each well at triple parallels, respectively, and incubated for 24 h. Then, MTT (5 mg/mL, 20 μL/well) was added and incubated for 4 h. 150 μL DMSO was added each well and shaken vigorously for 10 min to dissolve MTT crystallization. The absorbance of each sample was detected at 490 nm by ELISA, and percent cell viability was calculated based on Eq.: Percentage = sample well/reference well × 100%

[2] = MTT cell viability assay, PD-L1- cells; type: cell-based; conditions: human, A375 cells (human melanoma, PD-L1 negative), LP-F 0-100 μM
Protocol: as §1, §2

[3] = Partition coefficient test (1-octanol/water); type: physicochemical
Protocol: Amounts of 0.37 MBq [^18F]LP-F, 1000 μL water and 1000 μL 1-octanol were mixed in a tube. The mixture was thoroughly shaken for 5 min. After centrifugation, 500 μL water was withdrawn from water phase and its radioactivity was measured by a gamma counter. An equal volume of 1-octanol was withdrawn from the organic phase and measured. The partition coefficient (Log P) was calculated based on Eq. Log P = Lg(Concentration of [^18F]LP-F in 1-octanol/Concentration of [^18F]LP-F in water)
Then, 500 μL water and 500 μL 1-octanol were added to the above tube to replenish the water and the organic phase. The two-phase system was shaken again. Water and the organic phase were sampled and measured and Log P was calculated again. Repeat two more times.

[4] = In vitro stability assay in PBS (radio-HPLC); type: physicochemical; conditions: PBS pH 7.4, 37 °C, 4 h
Protocol: (§3) In order to investigate the in vitro stability of the radioactive probe, [^18F]LP-F (~14.8 MBq, 40 μL) was incubated in PBS (pH 7.4, 360 μL) at 37 °C for 4 h. [^18F]LP-F (~14.8 MBq, 40 μL) was also mixed with mouse serum (360 μL) and maintained at 37 °C for 4 h. Such PBS solution was subjected to stability analysis using radio-HPLC at 0, 1, 2 and 4 h. A 30 μL sample from the above mouse serum after protein precipitation with 30 μL acetonitrile was also subjected to stability analysis at 0, 1, 2 and 4 h.

[5] = In vitro stability assay in mouse serum (radio-HPLC); type: in vitro ADME; conditions: 37 °C, 4 h
Protocol: as §3

[6] = tested on: A375-hPD-L1 cells; experiment: Cell uptake of the tracer, PD-L1+ cells; type: cell-based, human; conditions: for cell uptake after blockade by LP-F: PD-L1+ cells blocked with 25 μM LP-F; for cell uptake: PD-L1+ cells
Protocol: as §1
(§4) A375 cells and A375-hPD-L1 cells (1 × 10^6) were added to each tube, separately. [^18F]LP-F (37 kBq/tube) diluted in DMEM was added and incubated at 37 °C for different periods (30, 60, 120, and 240 min). PD-L1^+ cells were incubated with 100 μL 25 μM LP-F for 30 min ahead to block PD-L1^+ cells and then incubated with [^18F]LP-F (37 kBq/tube) at same conditions. After incubation and wash, the cells’ radioactivity was measured.

[7] = tested on: A375 cells; experiment: Cell uptake of the tracer, PD-L1- cells; type: cell-based, human; conditions: 4 h
Protocol: as §1, §4

[8] = target: T1, PD-L1 (Homo sapiens, UniProt Q9NZQ7); experiment: Saturation binding assay on PD-L1+ cells; conditions: PD-L1+ cell, one-site model, read-out: dissociation constant (Kd)
T1 construct: expressed in transfected cells; host or cells: A375 human melanoma cells transfected with the human PD-L1 gene (A375-hPD-L1)
T1 sequence (Q9NZQ7 19-290): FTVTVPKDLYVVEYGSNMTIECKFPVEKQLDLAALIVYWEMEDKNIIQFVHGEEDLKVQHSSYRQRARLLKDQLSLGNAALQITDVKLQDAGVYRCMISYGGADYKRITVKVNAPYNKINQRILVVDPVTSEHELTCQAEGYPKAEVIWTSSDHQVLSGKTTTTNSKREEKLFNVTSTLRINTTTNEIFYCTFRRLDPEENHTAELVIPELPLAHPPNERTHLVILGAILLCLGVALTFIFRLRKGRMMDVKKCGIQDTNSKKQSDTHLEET
Protocol: as §1
PD-L1^+ cells (2 × 10^5) were added to each tube and incubated with the gradient of concentration of [^18F]LP-F dissolved in DMEM (0 to 128 nM) at 37 °C for 1 h. After incubation, the cells were centrifuged and washed by PBS twice and then were measured for radioactivity by a γ counter as total bound value. For the non-specific bound value, PD-L1^+ cells (2 × 10^5) were added to each tube and incubated with LP-F (50 μM) dissolved in DMEM for half an hour in advance and then incubated with above concentrations of [^18F]LP-F. After centrifugation and wash, the radioactivity was detected. The specific binding value is obtained by subtracting non-specific bound value from total bound value. The equilibrium dissociation constant (Kd) was calculated by non-linear fit in a one-site model through specific binding values and concentrations of [^18F]LP-F.

[9] = tested on: A375-hPD-L1 tumor; experiment: Micro-PET imaging, PD-L1+ tumor; type: in vivo, mice
Text: (§5) Female BALB/c nude mice at age of 5~7 weeks were inoculated subcutaneously with 1 × 10^6 A375-hPD-L1 cells in saline at the left flank and 1 × 10^6 A375 cells at the right flank in the same mouse in order to eliminate individual differences. Animal study can be performed in accordance with the principles laid out by the ethical committee of Jiangsu Institute of Nuclear Medicine.
(§6) A375 (right)/A375-hPD-L1 (left) bilateral tumor-bearing mice (n = 3) were anesthetized and then intravenously injected with [^18F] LP-F (~7.4 MBq) dissolved in saline (200 μL). Dynamic scanning was performed for one hour. ASIPro software (Siemens) was applied to process the PET images. Dynamic images were reconstructed in OSEM3D/MAP algorithm and split into twelve frames. Quantification and analysis of region of interest (ROI) in tumors and organs were carried out.

[10] = tested on: A375 tumor; experiment: Micro-PET imaging, PD-L1- tumor; type: in vivo, mice
Text: as §5, §6

[11] = Micro-PET imaging, non-target tissues (muscle, bone); type: in vivo, mice; conditions: up to 60 min
Text: as §5, §6

Structure (SMILES): Cc1c(COc2cc(OCc3cccc(C#N)c3)c(CN3CCN(CCOCCOCCOCCF)CC3)cc2Cl)cccc1-c1ccc2c(c1)OCCO2 [LP-F]
viability at 24 h [1]: > 90%
viability at 24 h [2]: > 90%

logP ([3]; mean ± SD, read-out: partition coefficient (Log P)): 2.18 ± 0.16
Log P (single trial) ([3]; trials 1-3): 2.08 and 2.10
logP ([3]; trials 1-3, read-out: Log P (single trial)): 2.37
stability in PBS [4]: high stability
stability in mouse serum [5]: high stability
Kd [8]: 226 nM
ratio of PD-L1+ tumor uptake to PD-L1- tumor uptake ([9]; 50 min): 2.95 ± 0.39 times
tumor-to-muscle ratio (T/M) ([9]; PD-L1+ tumor, 30 min post injection): 2.08 ± 0.38
maximum tumor uptake ([9]; PD-L1+ tumor, 50 min): 3.53 ± 0.46 %ID/mL
tumor-to-muscle ratio (T/M) ([9]; PD-L1+ tumor, 50 min): 2.20 ± 0.29
tumor-to-muscle ratio (T/M) ([10]; 10 min): 0.82 ± 0.24
tumor-to-muscle ratio (T/M) ([10]; 50 min): 0.75 ± 0.19
maximum tumor uptake ([10]; 60 min): 1.23 ± 0.39 %ID/mL
tumor-to-muscle ratio (T/M) ([10]; all the time): below 1
activity on the bone (defluorination, in vivo stability) [11]: no obvious activity on the bone
Structure (SMILES): Cc1c(COc2cc(OCc3cccc(C#N)c3)c(CN3CCN(CCOCCOCCOCC[18F])CC3)cc2Cl)cccc1-c1ccc2c(c1)OCCO2 [[^18F]LP-F]
cell uptake after blockade by LP-F ([6]; 0.5 h): 1.42 ± 0.03 %AD
cell uptake after blockade by LP-F ([6]; 4 h): 1.72 ± 0.02 %AD
cell uptake ([6]; 30 min): 3.66 ± 0.20 %AD
cell uptake ([6]; 4 h): 3.64 ± 0.19 %AD
maximum cell uptake [7]: 1.41 ± 0.09 %AD
